The nature of data set [1]: Stability in guinea pig lung S9 fraction at 1 uM incubated for 60 mins by LC-MS/MS analysis.
Data set [2] is filed under the species Cavia porcellus. As to the kind of experiment: animal or person. To be noted: albino Dunkin-Hartley, 1 h, read-out: INH.
Description: Inhibition of acetylcholine induced bronchoconstriction in male albino Dunkin-Hartley guinea pig model at 1 nmol/kg, IT(Intratracheal) preadministered with compound followed by acetylcholine addition at 5 to 30 mins in presence of ICI-118551 and measured 1 hrs post compound treatment relative to control
For data set [3], the system named is Cavia porcellus. As to the kind of experiment: Inhibition of histamine induced bronchoconstriction in male albino Dunkin-Hartley guinea pig model at 1 nmol/kg, IT(Intratracheal) preadministered with compound followed by histamine addition at 5 to 30 mins and measured 24 hrs post compound treatment relative to control. The note with it: read-out: INH.
Data set [4] deals with Cavia porcellus. The data set can be described thus: Inhibition of acetylcholine induced bronchoconstriction in male albino Dunkin-Hartley guinea pig model at 1 nmol/kg, IT(Intratracheal) preadministered with compound followed by acetylcholine addition at 5 to 30 mins and measured 1 hrs post compound treatment relative to control. The note with it: read-out: INH.
Data set [5] deals with Cavia porcellus. The data set can be described thus: Inhibition of histamine induced bronchoconstriction in male albino Dunkin-Hartley guinea pig model at 1 nmol/kg, IT(Intratracheal) preadministered with compound followed by histamine addition at 5 to 30 mins and measured 1 hrs post compound treatment relative to control. The note with it: read-out: INH.
The test system of data set [6] is Cavia porcellus. The data set can be described thus: Inhibition of acetylcholine induced bronchoconstriction in male albino Dunkin-Hartley guinea pig model at 1 nmol/kg, IT(Intratracheal) preadministered with compound followed by acetylcholine addition at 5 to 30 mins and measured 24 hrs post compound treatment relative to control. To be noted: read-out: INH.
Data set [7] is filed under the species Cavia porcellus. The data set can be described thus: animal or person. To be noted: albino Dunkin-Hartley, 24 h, read-out: INH.
Description: Inhibition of acetylcholine induced bronchoconstriction in male albino Dunkin-Hartley guinea pig model at 1 nmol/kg, IT(Intratracheal) preadministered with compound followed by acetylcholine addition at 5 to 30 mins in presence of ICI-118551 and measured 24 hrs post compound treatment relative to control
Data set [8] in a line: in vitro. To be noted: rat, lung S9 fraction.
Description: Stability in rat lung S9 fraction assessed as half-life at 1 uM incubated for 60 mins by LC-MS/MS analysis
In data set [9] the test system is Cavia porcellus. The data set can be described thus: Inhibition of histamine induced bronchoconstriction in male albino Dunkin-Hartley guinea pig model at 0.3 nmol/kg, IT(Intratracheal) preadministered with compound followed by histamine addition at 5 to 30 mins and measured 16 hrs post compound treatment relative to control. To be noted: read-out: INH.
Data set [10] in a line: in vitro. To be noted: rat, plasma.
Description: Stability in rat plasma assessed as half-life at 5 uM incubated for 120 mins by LC-MS/MS analysis
Another data set deals with Trachea. As to the kind of experiment: Inhibition of carbachol-induced smooth muscle contraction in male albino Dunkin-Hartley guinea pig trachea. To be noted: Cavia porcellus, read-out: pIC50 (converted).
The species entered for data set [11] is Cavia porcellus. The data set can be described thus: animal or person. To be noted: albino Dunkin-Hartley, 1 h, read-out: INH. This is another data set of the same source.
Description: Inhibition of acetylcholine induced bronchoconstriction in male albino Dunkin-Hartley guinea pig model at 0.3 nmol/kg, IT(Intratracheal) preadministered with compound followed by acetylcholine addition at 5 to 30 mins in presence of ICI-118551 and measured 1 hrs post compound treatment relative to control
Data set [12] in a line: in vitro. To be noted: human, hepatocytes.
Description: Metabolic stability in human hepatocytes assessed as clearance measured per 10^6 cells at 1 uM incubated for 90 mins by LC-MS/MS analysis
Data set [13] has as its target Muscarinic acetylcholine receptor M3 (Homo sapiens, UniProt P20309).
Description: Displacement of Scopolamine methyl chloride,[N-methyl-3H] from human muscarinic M3 receptor assessed as inhibition constant incubated for 2 hrs by Microbeta scintillation counter
The nature of data set [14]: in vitro. The note with it: guinea pig, lung S9 fraction.
Description: Stability in guinea pig lung S9 fraction assessed as half-life at 1 uM incubated for 60 mins by LC-MS/MS analysis
Data set [15] is described as follows: in vitro. The note with it: guinea pig, hepatocytes.
Description: Metabolic stability in guinea pig hepatocytes assessed as clearance measured per 10^6 cells at 1 uM incubated for 90 mins by LC-MS/MS analysis
Data set [16] concerns the target Muscarinic acetylcholine receptor M3 (Cavia porcellus, UniProt Q8VH26). As to the kind of experiment: Antagonist activity at M3 receptor in male albino Dunkin-Hartley guinea pig trachea assessed as inhibition of carbachol-induced smooth muscle contraction in presence of propranolol.
Data set [17] concerns Cavia porcellus. As to the kind of experiment: Inhibition of acetylcholine induced bronchoconstriction in male albino Dunkin-Hartley guinea pig model at 0.3 nmol/kg, IT(Intratracheal) preadministered with compound followed by acetylcholine addition at 5 to 30 mins and measured 16 hrs post compound treatment relative to control. To be noted: read-out: INH.
Data set [18] has as its system Cavia porcellus. The data set can be described thus: Inhibition of acetylcholine induced bronchoconstriction in male albino Dunkin-Hartley guinea pig model at 0.3 nmol/kg, IT(Intratracheal) preadministered with compound followed by acetylcholine addition at 5 to 30 mins and measured 1 hrs post compound treatment relative to control. To be noted: read-out: INH.
A short description of data set [19]: in vitro. To be noted: rat, hepatocytes.
Description: Metabolic stability in rat hepatocytes assessed as clearance measured per 10^6 cells at 1 uM incubated for 90 mins by LC-MS/MS analysis
Data set [20] is described as follows: in vitro. To be noted: guinea pig, plasma.
Description: Stability in guinea pig plasma assessed as half-life at 5 uM incubated for 120 mins by LC-MS/MS analysis
Data set [21] is filed under the species Cavia porcellus. As to the kind of experiment: animal or person. To be noted: albino Dunkin-Hartley, 16 h, read-out: INH.
Description: Inhibition of acetylcholine induced bronchoconstriction in male albino Dunkin-Hartley guinea pig model at 0.3 nmol/kg, IT(Intratracheal) preadministered with compound followed by acetylcholine addition at 5 to 30 mins in presence of ICI-118551 and measured 16 hrs post compound treatment relative to control
A short description of data set [22]: in vitro. To be noted: human, plasma.
Description: Stability in human plasma assessed as half-life at 5 uM incubated for 120 mins by LC-MS/MS analysis
Data set [23] relates to Cavia porcellus. The data set can be described thus: Inhibition of histamine induced bronchoconstriction in male albino Dunkin-Hartley guinea pig model at 0.3 nmol/kg, IT(Intratracheal) preadministered with compound followed by histamine addition at 5 to 30 mins and measured 1 hrs post compound treatment relative to control. To be noted: read-out: INH.
Data set [24] has as its target Beta-2 adrenergic receptor (Homo sapiens, UniProt P07550).
Description: Displacement of [125I]-Cyanopindolol from human beta2 adrenoceptor assessed as inhibition constant incubated for 1 hrs by Microbeta scintillation counter
Data set [25] can be described thus: in vitro. To be noted: human, lung S9 fraction.
Description: Stability in human lung S9 fraction assessed as half-life at 1 uM incubated for 60 mins by LC-MS/MS analysis
Data set [26] concerns the target Beta-2 adrenergic receptor (Cavia porcellus, UniProt Q8K4Z4). As to the kind of experiment: Agonist activity at beta2 adrenoceptor in male albino Dunkin-Hartley guinea pig trachea assessed as inhibition of histamine induced smooth muscle contraction.
For data set [27], the target named is Voltage-dependent L-type calcium channel subunit alpha-1C (Homo sapiens, UniProt Q13936).
Description: Inhibition of human Cav1.2
For data set [28], the target named is Sodium channel protein type 5 subunit alpha (Homo sapiens, UniProt Q14524).
Chain of Sodium channel protein type 5 subunit alpha (Q14524 whole entry): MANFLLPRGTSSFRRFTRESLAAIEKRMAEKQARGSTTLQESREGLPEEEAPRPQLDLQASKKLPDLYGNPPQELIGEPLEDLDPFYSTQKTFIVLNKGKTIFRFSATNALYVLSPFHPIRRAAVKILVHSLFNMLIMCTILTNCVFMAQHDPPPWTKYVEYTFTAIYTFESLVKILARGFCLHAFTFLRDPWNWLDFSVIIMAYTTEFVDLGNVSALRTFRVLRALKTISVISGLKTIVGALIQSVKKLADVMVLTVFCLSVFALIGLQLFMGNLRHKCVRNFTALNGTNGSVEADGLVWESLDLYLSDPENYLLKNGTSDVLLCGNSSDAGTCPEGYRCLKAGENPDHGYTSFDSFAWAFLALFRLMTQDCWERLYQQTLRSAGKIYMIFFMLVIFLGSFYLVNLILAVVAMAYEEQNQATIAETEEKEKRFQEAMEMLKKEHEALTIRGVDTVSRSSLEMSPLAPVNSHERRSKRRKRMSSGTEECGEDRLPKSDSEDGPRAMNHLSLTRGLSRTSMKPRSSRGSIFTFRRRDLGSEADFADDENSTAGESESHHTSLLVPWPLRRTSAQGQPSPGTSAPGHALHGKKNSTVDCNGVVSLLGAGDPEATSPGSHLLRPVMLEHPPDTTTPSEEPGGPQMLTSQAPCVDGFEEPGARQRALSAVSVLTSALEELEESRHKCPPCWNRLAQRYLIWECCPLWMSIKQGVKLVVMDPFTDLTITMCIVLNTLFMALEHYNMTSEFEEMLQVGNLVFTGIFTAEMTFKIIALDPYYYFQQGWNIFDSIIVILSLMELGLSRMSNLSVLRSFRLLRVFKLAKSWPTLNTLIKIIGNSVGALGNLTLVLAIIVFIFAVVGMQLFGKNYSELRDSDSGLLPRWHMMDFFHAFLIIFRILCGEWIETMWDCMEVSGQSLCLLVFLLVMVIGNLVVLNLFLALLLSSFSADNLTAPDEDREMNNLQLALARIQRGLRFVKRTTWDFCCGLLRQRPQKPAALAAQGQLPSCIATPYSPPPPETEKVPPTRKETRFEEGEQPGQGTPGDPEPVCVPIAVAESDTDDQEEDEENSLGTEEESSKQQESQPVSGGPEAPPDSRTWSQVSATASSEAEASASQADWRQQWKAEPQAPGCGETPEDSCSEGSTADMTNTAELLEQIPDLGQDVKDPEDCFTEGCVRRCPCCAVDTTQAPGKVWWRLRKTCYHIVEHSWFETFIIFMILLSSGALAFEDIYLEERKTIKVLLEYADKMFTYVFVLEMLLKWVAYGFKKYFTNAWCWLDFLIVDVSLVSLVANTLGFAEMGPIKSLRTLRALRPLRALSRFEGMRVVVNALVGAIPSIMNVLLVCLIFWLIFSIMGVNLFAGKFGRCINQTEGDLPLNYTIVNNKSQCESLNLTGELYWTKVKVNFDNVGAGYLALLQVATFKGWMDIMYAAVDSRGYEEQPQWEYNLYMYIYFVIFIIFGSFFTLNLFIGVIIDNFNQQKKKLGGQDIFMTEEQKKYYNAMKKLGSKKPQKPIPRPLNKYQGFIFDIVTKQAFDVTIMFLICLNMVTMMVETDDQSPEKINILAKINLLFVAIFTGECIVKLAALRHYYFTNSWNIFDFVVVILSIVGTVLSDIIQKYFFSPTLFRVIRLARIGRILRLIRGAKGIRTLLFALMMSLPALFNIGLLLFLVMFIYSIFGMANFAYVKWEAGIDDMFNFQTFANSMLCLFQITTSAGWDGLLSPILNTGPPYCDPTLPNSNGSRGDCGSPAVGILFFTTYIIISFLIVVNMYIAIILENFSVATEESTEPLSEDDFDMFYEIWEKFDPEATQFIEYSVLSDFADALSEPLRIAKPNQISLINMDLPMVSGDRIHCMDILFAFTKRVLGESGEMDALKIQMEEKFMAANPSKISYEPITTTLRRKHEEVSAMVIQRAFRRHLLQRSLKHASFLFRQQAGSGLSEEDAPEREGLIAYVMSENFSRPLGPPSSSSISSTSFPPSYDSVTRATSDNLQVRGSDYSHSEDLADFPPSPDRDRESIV
Description: Inhibition of human Nav1.5
Data set [29] addresses Voltage-gated inwardly rectifying potassium channel KCNH2 (Homo sapiens, UniProt Q12809).
Description: Inhibition of human ERG by patch clamp assay

Chain of Muscarinic acetylcholine receptor M3 (Homo sapiens, UniProt P20309) (P20309 whole entry): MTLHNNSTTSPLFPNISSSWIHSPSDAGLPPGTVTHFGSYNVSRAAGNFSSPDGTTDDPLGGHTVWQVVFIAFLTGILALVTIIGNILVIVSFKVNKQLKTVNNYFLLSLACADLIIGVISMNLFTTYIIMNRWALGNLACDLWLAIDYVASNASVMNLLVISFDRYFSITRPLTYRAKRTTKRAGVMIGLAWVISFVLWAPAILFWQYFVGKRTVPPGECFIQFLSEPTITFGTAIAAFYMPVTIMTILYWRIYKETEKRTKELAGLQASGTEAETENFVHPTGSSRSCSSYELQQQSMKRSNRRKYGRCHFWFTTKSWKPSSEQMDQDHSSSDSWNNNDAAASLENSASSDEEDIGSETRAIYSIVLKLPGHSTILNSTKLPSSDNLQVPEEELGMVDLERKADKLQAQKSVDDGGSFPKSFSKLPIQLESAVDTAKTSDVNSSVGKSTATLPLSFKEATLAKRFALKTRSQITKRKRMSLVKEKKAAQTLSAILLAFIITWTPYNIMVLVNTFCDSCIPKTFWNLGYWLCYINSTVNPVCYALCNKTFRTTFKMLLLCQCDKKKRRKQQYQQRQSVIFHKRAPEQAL
Chain of Beta-2 adrenergic receptor (Cavia porcellus, UniProt Q8K4Z4) (Q8K4Z4 whole entry): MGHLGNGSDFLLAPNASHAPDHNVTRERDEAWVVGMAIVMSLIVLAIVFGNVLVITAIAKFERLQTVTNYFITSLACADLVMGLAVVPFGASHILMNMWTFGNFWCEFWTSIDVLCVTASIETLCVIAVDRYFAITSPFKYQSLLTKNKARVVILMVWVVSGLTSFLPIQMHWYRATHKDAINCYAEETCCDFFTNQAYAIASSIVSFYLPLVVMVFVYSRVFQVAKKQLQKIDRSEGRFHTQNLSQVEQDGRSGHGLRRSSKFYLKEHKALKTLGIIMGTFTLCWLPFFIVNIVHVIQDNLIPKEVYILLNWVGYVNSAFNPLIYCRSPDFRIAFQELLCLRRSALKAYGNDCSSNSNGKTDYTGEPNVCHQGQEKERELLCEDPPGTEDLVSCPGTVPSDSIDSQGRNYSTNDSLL
Chain of Voltage-gated inwardly rectifying potassium channel KCNH2 (Q12809 whole entry): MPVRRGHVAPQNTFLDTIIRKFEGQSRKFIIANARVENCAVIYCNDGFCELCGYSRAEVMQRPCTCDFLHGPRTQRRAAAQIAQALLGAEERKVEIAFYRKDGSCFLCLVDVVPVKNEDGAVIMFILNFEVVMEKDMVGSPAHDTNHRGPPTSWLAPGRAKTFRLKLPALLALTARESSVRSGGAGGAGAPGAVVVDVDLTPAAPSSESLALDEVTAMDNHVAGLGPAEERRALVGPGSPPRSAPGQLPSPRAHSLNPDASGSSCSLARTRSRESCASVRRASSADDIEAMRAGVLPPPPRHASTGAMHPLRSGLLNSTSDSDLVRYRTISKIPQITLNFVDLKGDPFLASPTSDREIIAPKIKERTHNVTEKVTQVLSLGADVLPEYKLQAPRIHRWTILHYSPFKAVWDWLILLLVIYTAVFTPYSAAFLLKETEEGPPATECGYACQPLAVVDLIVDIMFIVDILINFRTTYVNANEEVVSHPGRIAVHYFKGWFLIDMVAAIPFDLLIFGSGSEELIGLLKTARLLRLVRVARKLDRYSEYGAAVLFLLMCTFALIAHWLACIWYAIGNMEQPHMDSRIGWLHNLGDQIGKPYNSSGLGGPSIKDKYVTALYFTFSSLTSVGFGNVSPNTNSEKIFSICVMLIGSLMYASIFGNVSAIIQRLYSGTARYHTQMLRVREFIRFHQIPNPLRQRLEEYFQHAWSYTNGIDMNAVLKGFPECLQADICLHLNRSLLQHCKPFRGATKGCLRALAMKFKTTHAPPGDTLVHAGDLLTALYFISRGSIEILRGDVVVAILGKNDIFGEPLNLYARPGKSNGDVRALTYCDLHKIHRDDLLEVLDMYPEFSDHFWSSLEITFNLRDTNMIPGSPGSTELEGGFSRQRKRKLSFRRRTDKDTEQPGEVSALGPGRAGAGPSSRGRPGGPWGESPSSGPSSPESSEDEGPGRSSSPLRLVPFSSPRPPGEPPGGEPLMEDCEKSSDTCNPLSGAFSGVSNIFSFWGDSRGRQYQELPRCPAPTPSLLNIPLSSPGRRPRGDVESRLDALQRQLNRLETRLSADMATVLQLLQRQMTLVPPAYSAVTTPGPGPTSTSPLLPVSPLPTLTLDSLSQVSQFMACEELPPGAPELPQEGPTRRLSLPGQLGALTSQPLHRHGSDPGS
Chain of Muscarinic acetylcholine receptor M3 (Cavia porcellus, UniProt Q8VH26) (Q8VH26 whole entry): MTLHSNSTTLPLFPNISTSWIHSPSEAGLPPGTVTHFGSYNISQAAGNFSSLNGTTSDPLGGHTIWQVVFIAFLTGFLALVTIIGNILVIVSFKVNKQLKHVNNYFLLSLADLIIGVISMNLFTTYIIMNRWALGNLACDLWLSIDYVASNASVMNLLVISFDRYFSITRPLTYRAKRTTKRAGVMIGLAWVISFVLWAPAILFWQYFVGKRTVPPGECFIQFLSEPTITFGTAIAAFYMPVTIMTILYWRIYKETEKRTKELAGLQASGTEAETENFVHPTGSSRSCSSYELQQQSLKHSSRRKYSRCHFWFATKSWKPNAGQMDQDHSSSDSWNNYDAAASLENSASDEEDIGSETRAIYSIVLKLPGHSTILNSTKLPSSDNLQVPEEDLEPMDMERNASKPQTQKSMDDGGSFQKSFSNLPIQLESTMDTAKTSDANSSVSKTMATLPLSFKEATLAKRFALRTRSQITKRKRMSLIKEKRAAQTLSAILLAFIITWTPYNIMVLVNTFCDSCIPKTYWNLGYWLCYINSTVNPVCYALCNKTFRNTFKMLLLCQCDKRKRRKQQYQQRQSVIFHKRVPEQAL

A word on the share remaining: it is what is left of the initial amount, in per cent. Read a low share remaining as a greater loss. On to `Cn1nc(C(=O)OCCCCNC[C@H](O)c2ccc(O)c3[nH]c(=O)ccc23)cc1COc1cccc([C@@H](NC(=O)O[C@H]2CN3CCC2CC3)c2ccccc2)c1`, for which the share remaining at 1 h, 1 µM in data set [1] came out at 98.5%. For the same molecule, the inhibition in vivo at 0.001 µmol/kg in the data set filed under Cavia porcellus [2] stood at 84%; in the data set with Cavia porcellus [3], 51%; in the data set with Cavia porcellus [4], 93%; with Cavia porcellus [5], 73%; in the data set with Cavia porcellus [6], 71%; in the data set listed under Cavia porcellus [7] it was 45%.

A word on the half-life: it is the time in which the quantity being followed falls by half. Lower therefore signals rapid decline. In general, hepatocyte CLint refers to the capacity of the preparation to metabolise the compound, expressed as a volume cleared per time. One may read the Ki as a dissociation constant, usually derived from enzyme kinetics or from competition with a known ligand. A high value points to lower affinity. Turning to `CCN1CCC(COC(=O)[C@](O)(c2ccccc2)c2cccc(OCCCNC(=O)c3cc(OC)c(CNC[C@H](O)c4ccc(O)c5[nH]c(=O)ccc45)cc3F)c2)CC1.O=C(O)C(F)(F)F.O=C(O)C(F)(F)F`, the half-life at 1 h, 1 µM in the data set “in vitro [8]”, in “in vitro [14]” and in the data set “in vitro [25]” was 4.67 h each time. For the same molecule, the amount remaining at 1 h, 1 µM in data set [1] is 96.5%. The inhibition in vivo at 0.0003 µmol/kg turned out to be 60% in the data set on Cavia porcellus [9]; 61% in the data set filed under Cavia porcellus [11]; 62% with Cavia porcellus [17]; 78% in the data set on Cavia porcellus [18]; 51% in the data set listed under Cavia porcellus [21]; 85% in the data set with Cavia porcellus [23]. In addition, the half-life at 2 h, 5 µM was 0.933 h in the data set “in vitro [10]”, above 2.5 h in the data set “in vitro [20]” and above 2.5 h in “in vitro [22]”. For the same molecule, the IC50 in the data set on Trachea is 0.501 nM; in data set [16], 3.16 nM; in data set [26], 3.16 nM. In addition, the hepatocyte CLint at 1.5 h, 1 µM in the data set “in vitro [12]” was found to be 2 µL/min/1e6 cells; in “in vitro [15]” it was 60 µL/min/1e6 cells; in “in vitro [19]”, 27 µL/min/1e6 cells. Further, the figures for the Ki in data set [13] and in data set [24] were 0.0126 nM and 0.501 nM, respectively.

For `O=C(NCCCOc1cccc([C@](O)(C(=O)O)c2ccccc2)c1)c1ccc(CNC[C@H](O)c2ccc(O)c3[nH]c(=O)ccc23)cc1`, the IC50 in data set [27], in data set [28] and in data set [29] was above 150000 nM each time. Further, the Ki in data set [13] was above 50.1 nM.

The values are drawn from ChEMBL document CHEMBL5500396, “Discovery, Multiparametric Optimization, and Solid-State Driven Identification of CHF-6550, a Novel Soft Dual Pharmacology Muscarinic Antagonist and β2 Agonist (MABA) for the Inhaled Treatment of Respiratory Diseases” (J Med Chem, 2024).
